Experimental data reported in PubChem BioAssay (NCI).
Several values for one entry are separate records, joined by “and”; a condition that tells them apart may be missing. Equal values may be shown once.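 Where inhibition never reached the appropriate level, the endpoint shown equals the highest concentration tested. Otherwise, values were interpolated linearly from a five-concentration, 48-hour dose response in 96-well plates. GI50 marks 50% less growth. Definition used: TGI = concentration required for complete inhibition of growth.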

Columns and labels:
Assay in all cases: DTP human tumour cell line panel, 48 h
HCT-15 colon = system: HCT-15 colon
HOP-62 NSCLC = system: HOP-62 NSCLC
SF-539 CNS = system: SF-539 CNS
CAKI-1 renal = system: CAKI-1 renal
A498 renal = system: A498 renal
HS 578T breast = system: HS 578T breast
PC-3 prostate = system: PC-3 prostate
MCF7 breast = system: MCF7 breast
SK-OV-3 ovarian = system: SK-OV-3 ovarian
TK-10 renal = system: TK-10 renal

| Structure (SMILES) | GI50 (HCT-15 colon) | GI50 (HOP-62 NSCLC) | TGI (HOP-62 NSCLC) | GI50 (SF-539 CNS) | TGI (SF-539 CNS) | GI50 (CAKI-1 renal) | TGI (CAKI-1 renal) | GI50 (A498 renal) | TGI (A498 renal) | GI50 (HS 578T breast) | TGI (HS 578T breast) | TGI (PC-3 prostate) | GI50 (MCF7 breast) | TGI (MCF7 breast) | GI50 (SK-OV-3 ovarian) | TGI (SK-OV-3 ovarian) | GI50 (PC-3 prostate) | GI50 (TK-10 renal) | TGI (TK-10 renal) | TGI (HCT-15 colon) |
| --- | --- | --- | --- | --- | --- | --- | --- | --- | --- | --- | --- | --- | --- | --- | --- | --- | --- | --- | --- | --- |
| COc1ccc2nc3cc([N+](=O)[O-])ccc3c(NCCCN(C)C)c2c1 | 3.46 µM | 0.0315 µM | 0.202 µM | 0.52 µM | 3.19 µM | 1.24 µM | 3.83 µM | 1.87 µM | 5.72 µM | 0.372 µM | 4.76 µM | 1.55 µM | 0.0304 µM | 0.204 µM | 0.231 µM | 3.13 µM |  |  |  |  |
| N#CCN/C=C\C(=O)c1ccc(Cl)cc1 |  | 38.6 µM | > 100 µM | 27 µM | 68.3 µM | 30.1 µM | > 100 µM | 38.6 µM | > 100 µM | 37.1 µM | > 100 µM | > 100 µM | 32.5 µM | > 100 µM | 34.7 µM | > 100 µM | 29.5 µM | 31.1 µM | > 100 µM |  |
| CC1(CCC(=O)OC2CCCCC2)OCCO1 |  |  | > 100 µM |  | > 100 µM |  | > 100 µM |  | > 100 µM |  | > 100 µM | > 100 µM |  | > 100 µM |  | > 100 µM |  |  | > 100 µM | > 100 µM |
| CNC(=O)Cc1nc(-c2cccc(NS(=O)(=O)c3c(F)cccc3F)c2F)c(-c2ccnc(Nc3ccccc3)n2)s1 | 7.37 µM | 3.27 µM | > 50 µM | 10.9 µM | > 50 µM | 0.385 µM | > 50 µM | 2.6 µM | 18.5 µM | 0.482 µM | 43.7 µM | > 50 µM | 19.1 µM | > 50 µM | 0.558 µM | 27.9 µM | 20.9 µM | 3.02 µM | > 40.7 µM | > 50 µM |
| O=C(/C=C/c1ccccc1)n1c(-c2ccc(Cl)cc2)nc2ccccc21 | 1.34 µM | 2.72 µM | 5.17 µM | 1.47 µM | 2.92 µM |  |  | 1.17 µM | 2.56 µM | 2.57 µM | 17.9 µM | 6.73 µM | 1.01 µM | 9.92 µM | 2.43 µM | 5.71 µM | 1.91 µM | 2.35 µM | 7.93 µM | 7.06 µM |
| CCN(CC)CCCC(C)N=C(C1=C(C(=NC(C)CCCN(CC)CC)c2cccc(OC)c2)C(=O)NC1=O)c1cccc(OC)c1 (centres undefined) | 1.47 µM | 0.825 µM | 2.34 µM |  |  | 1.66 µM | 8.62 µM | 1.85 µM | 8.38 µM | 4.24 µM | 14.5 µM | 5.12 µM | 1.25 µM | 3.51 µM | 2.98 µM | 13.1 µM | 1.47 µM | 1.26 µM | 3.44 µM | 5.53 µM |
| COC(=O)c1cc(O)c2c(c1C(=O)OC)C[C@H]1[C@@H]3CC=C4C[C@@H](O)CC[C@]4(C)[C@H]3CC[C@]21C | 3.03 µM | 2.24 µM | 6.27 µM | 2.1 µM | 6.65 µM | 2.89 µM | 9.07 µM | 3.7 µM | 20.1 µM | 2.78 µM | 19.5 µM | 13.3 µM | 3.15 µM | 12.8 µM | 4.75 µM | 27.4 µM | 2.51 µM | 3.83 µM | 11.8 µM | 35.1 µM |
| Cc1sc2c(c1C)C(c1ccc(Cl)cc1)=N[C@@H](CC(=O)OC(C)(C)C)c1nnc(C)n1-2 | 0.308 µM and 0.157 µM | 0.253 µM and 0.121 µM | 17.1 µM and 16.4 µM | 0.639 µM and 0.462 µM | 19.4 µM and 17.9 µM | 0.0513 µM and 0.0532 µM | 18.2 µM and 15.1 µM | 0.267 µM and 0.0617 µM | 1.46 µM and 1.15 µM | 0.139 µM and 0.0567 µM | 18.4 µM and 18.1 µM | 24.6 µM and 16.7 µM | 0.117 µM and 0.06 µM | 17.9 µM and 13.6 µM | 0.756 µM and 0.326 µM | 19.4 µM and 15.6 µM | 1.58 µM and 1.08 µM | 0.154 µM and 0.0583 µM | 12.7 µM and 13.4 µM | 13.4 µM and 13.7 µM |
| CCOC(=O)CC1C(COC(=O)NC)OC(n2cnc3c(NC(=O)Nc4ccccc4)ncnc32)C1O[Si](C)(C)C(C)(C)C (centres undefined) | 11.7 µM | 14.7 µM | 77.7 µM | 11.5 µM | 26.4 µM | 3.72 µM | 38.8 µM | 4.65 µM | 21.4 µM | 3.39 µM | 14.7 µM | 25.4 µM | 3.37 µM | 17.1 µM | 40.4 µM | > 100 µM | 2.87 µM | 10.7 µM | 50 µM | > 100 µM |
| COc1nc(N)nc2c1ncn2C1OC(CO)C(O)C1O (centres undefined) | > 5000 µM | 2010 µM | > 5000 µM | 3800 µM | > 5000 µM | 3120 µM | > 5000 µM | > 5000 µM | > 5000 µM | > 5000 µM | > 5000 µM | > 5000 µM | 3800 µM | > 5000 µM | 2430 µM | > 5000 µM | > 5000 µM | > 5000 µM | > 5000 µM | > 5000 µM |
| O=C1C=CC(=O)c2cc(Sc3ccccc3)c(=O)ccc21 |  |  | 47.3 µM |  | 37 µM |  |  |  | 31.4 µM |  | 64.8 µM | 33.2 µM |  | 23.9 µM |  | 54.9 µM |  |  | 32.2 µM | 33.1 µM |
| COc1ccc2c(c1)CC[C@H](O)/C2=C/c1cc(OC)c(OC)c(OC)c1 | 0.0567 µM | 0.0876 µM | > 100 µM | 0.0722 µM | 0.43 µM | 0.118 µM | > 100 µM | 0.0467 µM |  | 0.101 µM | > 100 µM | > 100 µM | 0.0379 µM | > 100 µM | 0.138 µM | > 100 µM | 0.0855 µM | 34.4 µM | > 100 µM | > 100 µM |
| O=Cc1cccc2c1Oc1c(cccc1C(=O)O)S2 |  |  | > 100 µM |  | > 100 µM |  | > 100 µM |  | > 100 µM |  | > 100 µM | > 100 µM |  | > 100 µM |  | > 100 µM |  |  | > 100 µM | > 100 µM |
| COc1cccc(/C=C/C(=O)c2ccc(Cl)cc2Cl)c1 | 13.9 µM |  |  | 12.2 µM | 23 µM | 13.1 µM | 29.6 µM | 11.9 µM | 21 µM | 22.3 µM | > 50 µM | 20.9 µM | 7.84 µM | 47.1 µM |  |  | 8.92 µM | 12.8 µM | > 50 µM | > 50 µM |
